According to paper PMC12655682, “Screening-Identified Oxazole-4-Carboxamide KB-2777 Exhibits In Vitro Anti-Coronavirus Activity” (Pharmaceutics, 2025):
“Also recorded” adds a separate entry of the source.

Columns and labels:
[1] = Cytotoxicity (EZ-Cytox WST) in LLC-MK2 cells; assay type: cell-based; conditions: rhesus monkey, 72 h exposure
Method: Cells were seeded at 2 × 10^4 cells per well in 96-well plates and, after overnight attachment, exposed to test compounds for 72 h in maintenance medium. The final DMSO concentration was ≤0.1% (v/v) for all conditions, including vehicle controls. Cell viability was quantified using EZ-Cytox WST reagent (DoGenBio, Seoul, Republic of Korea) according to the manufacturer’s instructions; absorbance was read at 450 nm on a SpectraMax i3x microplate reader (Molecular Devices, San Jose, CA, USA). Viability for each well was normalized to the mean of vehicle-treated (mock) controls on the same plate and expressed as percent viability. Each condition included technical replicates (n = 3) per experiment. Concentration–response data from ≥3 independent experiments were fit to a four-parameter logistic (4PL) model in GraphPad Prism 10.1.2 (GraphPad Software, San Diego, CA, USA) (log10-transformed concentrations; bottom and top unconstrained).

HCoV-NL63 = experiment: Time-of-addition, spike (S) protein immunofluorescence assay, HCoV-NL63/LLC-MK2; assay type: cell-based, Human coronavirus NL63
Method: At 48 h post-infection, cells were fixed in 4% paraformaldehyde for 15 min, permeabilized with 0.1% Triton X-100, and blocked with 5% BSA. Samples were incubated with a virus-specific rabbit anti-S protein primary antibody, followed by a goat anti-rabbit IgG H&L (FITC) secondary antibody (Supplementary Table S1) and Hoechst nuclear counterstain. Images were acquired on an epifluorescence microscope. Using Fiji, binary thresholding and particle analysis (or Cell Counter) were applied to count the total number of cells and the number of S-positive cells per field, and the infection rate per well was calculated as (S-positive cells/total cells × 100%). At least eight randomly selected fields per well were analyzed.
TOA experiments were performed in HCoV-NL63–infected LLC-MK2 cells using four regimens: • Full: compound present from −24 h to 48 h relative to infection. • Pre-treatment: −24 h to −1 h, wash at −1 h, then infection in drug-free medium. • Co-treatment: −1 h to 0 h during adsorption only, wash at 0 h. • Post-treatment: 0 h to 48 h after adsorption.
Unless otherwise specified, infections were carried out at 100 TCID50 per well with 1 h adsorption at 37 °C, and compounds were used at 20 µM. Primary readout was S protein IFA at 48 h; EZ-Cytox and TCID50 at 48 h for the same regimens are provided in Supplementary Data (Figures S14 and S15).

HCoV-OC43 = experiment: Time-of-addition, CPE reduction in MRC-5 cells, HCoV-OC43; assay type: cell-based, Human coronavirus OC43; conditions: HCoV-OC43, MRC-5 cells, 48 h
Method: For antiviral activity, cells in 96-well plates were infected and treated with test compounds as indicated and incubated for 48–72 h. Cell viability was quantified by WST (EZ-Cytox) at 450 nm on the same reader. Cytoprotective effect was calculated by normalizing to infected DMSO controls and converting to percent protection: % Protection = ((V_drug + virus − V_virus-only)/(V_mock − V_virus-only)) × 100.
For HCoV-OC43, TOA was assessed by CPE reduction in MRC-5 cells and by TCID50 on Vero E6 (no IFA collected).
Figure S14. Time-of-addition (TOA) analysis of KB-2777 against HCoV-NL63 (48 h). (a) CPE-reduction assay. KB-2777 was applied at 20 µM (blue) or 5 µM (red) under the indicated TOA conditions (Full, Pre, Co, Post, DMSO).
Cell protection (%) was calculated relative to the DMSO control. Bars show mean ± SD (n = 3). […] (b) Infectious progeny released under the same TOA conditions, quantified as log10(TCID₅₀/mL) from culture supernatants (see Methods). […]
Figure S15. […] Cell protection (%) was calculated relative to the DMSO control. […]
Statistics: one-way ANOVA with Dunnett’s multiple comparisons vs DMSO; *P<0.05, **P<0.01, ***P<0.001, ****P<0.0001. (b) Infectious progeny released under the same TOA conditions, quantified as log₁₀(TCID₅₀/mL) from culture supernatants by endpoint dilution on Vero E6 indicator cells (Spearman–Kärber method; see Methods). […]

[2] = tested on: IL6, ISG15, IFNB1, NQO1, HMOX1 (HO-1), GCLM, DDIT3 (CHOP), ATF4, XBP1 transcripts; experiment: Targeted host-response transcript profiling (two-step RT-qPCR) in MRC-5 cells; assay type: cell-based, human; conditions: n = 3
Method: Total RNA was isolated using the RNeasy kit (QIAGEN, Hilden, Germany) according to the manufacturer’s instructions. cDNA was synthesized with the Tetro cDNA Synthesis Kit (Meridian Bioscience, Memphis, TN, USA) following the manufacturer’s protocol. Quantitative PCR was performed using Luna Universal qPCR Master Mix, SYBR (New England Biolabs, Ipswich, MA, USA). Target genes included IL6, ISG15, IFNB1, NQO1, HMOX1 (HO-1), GCLM, DDIT3 (CHOP), ATF4, and XBP1; primer sequences are listed in Table S3. ACTB served as the internal control. Expression changes were calculated as −ΔΔCt (log2 fold change) relative to time-matched calibrators (OC43 only for infected comparisons; DMSO for uninfected). Each condition included n = 3 biological replicates. At each time point, data were analyzed independently in GraphPad Prism 10.1.2 (GraphPad Software, San Diego, CA, USA) using an ordinary two-way ANOVA with factors gene (9 levels) and treatment (2 levels). Significance marks reflect within-gene simple-effects comparisons (treatment) with Tukey’s multiple-comparisons adjustment (two-tailed, α = 0.05). Time was not included as a factor; no inferences were made across time points.

COc1cccc(-c2oc(-c3ccc(C(F)(F)F)cc3)nc2C(=O)NCC2CC2)c1 [KB-2777, N-(cyclopropylmethyl)-5-(3-methoxyphenyl)-2-(4-(trifluoromethyl)phenyl)Oxazole-4-Carboxamide]
CC50 at 72 h [1]: > 50 µM | inhibition by S protein IFA, post-treatment (HCoV-NL63; HCoV-NL63/LLC-MK2, 20 µM, 0 h to 48 h, readout 48 h): retained measurable activity | inhibition by S protein IFA, co-treatment (HCoV-NL63; HCoV-NL63/LLC-MK2, 20 µM, adsorption only (−1 h to 0 h), readout 48 h, vs virus-only DMSO control): little effect | inhibition by S protein IFA, pre-treatment (HCoV-NL63; HCoV-NL63/LLC-MK2, 20 µM, pre-exposure with washout, readout 48 h): retained measurable activity | inhibition by S protein IFA, full regimen (HCoV-NL63; HCoV-NL63/LLC-MK2, 20 µM, −24 h to 48 h, readout 48 h): greatest inhibition | time-of-addition effect-size order of regimens (HCoV-NL63; full, pre, co, post regimens, across readouts): full > pre ≈ post > co; also recorded: full » pre ≈ post » co | CPE reduction across TOA regimens (HCoV-OC43): greatest antiviral effect with full exposure, intermediate activity with pre- and post-treatment, and little or no effect with co-treatment | host-response transcripts (−ΔΔCt) in infected cells ([2]; OC43-infected MRC-5, OC43 + KB-2777 vs OC43 alone, time-matched): attenuated IL6, IFNB1, ISG15, and selected UPR transcripts; also recorded: attenuated these transcriptional responses | host-response transcripts (−ΔΔCt) in uninfected cells ([2]; uninfected MRC-5, KB-2777 alone vs DMSO): changes were limited and transient
